Data as given in US20140128380A1, “METHODS OF MODULATING THE ACTIVITY OF THE MC1 RECEPTOR AND TREATMENT OF CONDITIONS RELATED TO THIS RECEPTOR” (Mimetica Pty Ltd, priority 2009, published 2014).

Key:
[1] = biological target: T1, human MC1R (Homo sapiens, UniProt Q01726); assay: cAMP stimulation assay, agonist mode, HEK 293 cells transiently expressing MC1 receptor (Alphascreen); type: cell-based; parameters: host or cells: HEK 293 (transient transfection); details: HEK293 cell; read-out: human MC1R agonism (cAMP EC50 HEK293 cell)
T1 sequence (Q01726 whole entry): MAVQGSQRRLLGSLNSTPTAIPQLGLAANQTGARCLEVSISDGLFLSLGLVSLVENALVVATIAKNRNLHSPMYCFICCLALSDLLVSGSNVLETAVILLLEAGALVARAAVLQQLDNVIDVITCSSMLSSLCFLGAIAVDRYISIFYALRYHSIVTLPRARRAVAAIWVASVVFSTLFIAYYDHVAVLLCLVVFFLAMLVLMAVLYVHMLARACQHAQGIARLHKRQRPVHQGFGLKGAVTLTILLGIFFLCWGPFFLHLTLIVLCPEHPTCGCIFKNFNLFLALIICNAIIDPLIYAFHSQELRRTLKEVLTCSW
Protocol: HEK 293 cells transiently expressing the melanocortin MC1 receptor were suspended in stimulation buffer (Hanks buffered saline solution (HBSS), 0.1% bovine serum albumin, protease inhibitors and 0.5 mM 3-Isobutyl-1-methylxanthine) at 4×10^6 cells/mL. 5 μl of cells, plus the compounds/peptides as described below, were added to wells of a 384-well plate as soon as possible after resuspension.
To detect agonist activity, test compounds at varying concentrations were diluted in stimulation buffer at two times concentrate and 5 μl was added to wells containing cells. Positive control wells contained NDP-MSH or alpha-MSH alone (no compound) at two times concentrate
Basal level (of cAMP) control wells contained stimulation buffer only (no agonist or compounds). Known concentrations of cAMP (standards) in stimulation buffer were included on the plate, but no cells were added to these wells. The plate was then incubated for 30 mins at 37° C. with gentle shaking. After incubation, 10 μl of lysis buffer (10% Tween 20, 1 M HEPES, 0.1% BSA, protease inhibitors, ddH2O) was added to all wells to be measured. Detection of cAMP was then achieved using the Alphascreen cAMP kit (Perkin Elmer, USA), briefly described as follows. A dilution of 10 μl acceptor beads/mL of lysis buffer was prepared in low light conditions. 5 μl of diluted acceptor beads were added to each well to be measured, then the plate was incubated for 30 mins at room temperature, in the dark, with gentle shaking. In low light conditions, donor beads were diluted at 10 μl/mL of lysis buffer, to which 0.75 μl biotinylated cAMP/mL of lysis buffer was added. This mixture was allowed to incubate for 30 mins at room temperature (in the dark) before proceeding with the assay. Following incubation, 5 μl/mL of biotinylated cAMP/Donor bead mix were added per well in low light conditions and the plate was incubated in the dark, at room temperature, for a further hr. Plates were read on an Envision plate reader (Perkin Elmer) after 1 hr and ˜16 hrs incubation. cAMP concentration in the cells was determined by the use of a ‘standard curve’ generated from the output of known cAMP concentrations as described below.
Each assay plate contained a “standard curve” of known concentrations of cAMP, in 10 fold dilutions. This is an essential part of the assay as there is high inter-plate variability. The plates were read on an Envision multilabel plate reader fitted with Alphascreen technology and the raw data was imported into GraphPad Prism 4 software (GraphPad, USA) for analysis.

[2] = biological target: T2, human MC1R (hMC1R) (Homo sapiens, UniProt Q01726); assay: Human MC1R radioligand binding assay (displacement of 125I-labeled NDP-MSH, Perkin Elmer hMC1R membranes); details: displacement of [125I]NDP-MSH, compounds tested as trifluoroacetate or hydrochloride salts or free base
T2 construct: purchased Perkin Elmer ES-195-M400UA
T2 sequence (Q01726 whole entry): as above
Method in brief: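 Frozen human MC1R membranes were incubated with in-house iodinated, HPLC-purified [125I]NDP-MSH for 1 hr at 37° C. Binding was measured as displacement of the labeled peptide.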

[3] = biological target: T1, human MC1R; assay: cAMP accumulation in MM96L cells transiently transfected with wild type MC1R; type: cell-based; details: 30 min stimulation with 10 μM compound
Protocol: In a similar assay testing for MC1R agonism, MM96L cells were transiently transfected with wild type MC1R and stimulated with compound (10 μM) for different time points, with cAMP accumulation compared to basal cAMP levels and the cAMP response to stimulation with NDP-MSH

Molecule	EC50 [1]	IC50 [2]	human MC1R agonism (cAMP, fold incease over basal level) [3]
N=C(N)NCCC[C@H]1C(=O)N(C(c2ccccc2)c2ccccc2)CC[C@H]2CN(Cc3ccc(-c4ccccc4)cc3)C(=O)N21 [Compound 110, 1-(3-((5S,9aS)-7-benzhydryl-2-(biphenyl-4-ylmethyl)-3,6-dioxooctahydro-1H-imidazo[1,5-d][1,4]diazepin-5-yl)propyl)guanidine]	78 µM	< 10 µM	1.5 fold
N=C(N)NCCC[C@@H]1N[C@H](CNC(=O)c2ccc(Oc3ccccc3)cc2)CCN(CC(c2ccccc2)c2ccccc2)C1=O [Compound 112, N-(((3S,5S)-1-(2,2-diphenylethyl)-3-(3-guanidinopropyl)-2-oxo-1,4-diazepan-5-yl)methyl)-4-phenoxybenzamide]	11 µM	< 10 µM	–
N=C(N)NCCC[C@@H]1N[C@H](CNC(=O)c2ccc3ccccc3c2)CCN(CC2CCCCC2)C1=O [Compound 116, N-(((3S,5S)-1-(cyclohexylmethyl)-3-(3-guanidinopropyl)-2-oxo-1,4-diazepan-5-yl)methyl)-2-naphthamide]	16 µM	< 10 µM	–
CC(=O)N[C@@H](Cc1c[nH]cn1)C(=O)N[C@H](Cc1ccccc1)[C@@H]1CCN(CCc2c[nH]c3ccccc23)C(=O)[C@H](CCCNC(=N)N)N1 [Compound 119, (S)—N—((R)-1-((3S,5S)-1-(2-(1H-indol-3-yl)ethyl)-3-(3-guanidinopropyl)-2-oxo-1,4-diazepan-5-yl)-2-phenylethyl)-2-acetamido-3-(1H-imidazol-4-yl)propanamide]	7 µM	< 10 µM	–
NCC[C@@H]1N[C@H](CNC(=O)/C=C/c2ccc(Cl)cc2)CCN(CC(c2ccccc2)c2ccccc2)C1=O [Compound 136, (E)-N-(((3S,5S)-3-(2-aminoethyl)-1-(2,2-diphenylethyl)-2-oxo-1,4-diazepan-5-yl)methyl)-3-(4-chlorophenyl)acrylamide]	–	< 10 µM	1.5 fold
CC[C@H](CN1CC[C@H](CNC(=O)c2ccc3cc(Cl)ccc3c2)N[C@H](CCN2CCCCC2)C1=O)c1ccccc1 [Compound 183, 6-chloro-N-(((3R,5R)-2-oxo-1-((S)-2-phenylbutyl)-3-(2-(piperidin-1-yl)ethyl)-1,4-diazepan-5-yl)methyl)-2-naphthamide]	–	< 10 µM	–
NCCCC[C@H]1N[C@H](CNC(=O)c2ccc(-c3ccccc3)cc2)CCN(CCc2ccccc2)C1=O [Compound 184, N-(((3R,5S)-3-(4-aminobutyl)-2-oxo-1-phenethyl-1,4-diazepan-5-yl)methyl)biphenyl-4-carboxamide]	–	< 10 µM	–
N=C(N)NCCC[C@@H]1N[C@@H](CNC(=O)c2ccc(-c3ccccc3)cc2)CCN(C(c2ccccc2)c2ccccc2)C1=O [Compound 185, N-(((3S,5R)-1-benzhydryl-3-(3-guanidinopropyl)-2-oxo-1,4-diazepan-5-yl)methyl)biphenyl-4-carboxamide]	–	< 10 µM	1.5 fold
N=C(N)NCCC[C@H]1N[C@@H](CNC(=O)c2ccc(-c3ccccc3)cc2)CCN(C(c2ccccc2)c2ccccc2)C1=O [Compound 186, N-(((3R,5R)-1-benzhydryl-3-(3-guanidinopropyl)-2-oxo-1,4-diazepan-5-yl)methyl)biphenyl-4-carboxamide]	–	< 10 µM	2.5 fold
(E)-N-(((3S,5S)-3-(aminomethyl)-1-(3,5-dichlorobenzyl)-2-oxo-1,4-diazepan-5-yl)methyl)-3-(4-chlorophenyl)acrylamide [Compound 150]	–	< 10 µM	–
N-(((3R,5R)-3-(2-amino-2-methylpropyl)-2-oxo-1-((S)-2-phenylbutyl)-1,4-diazepan-5-yl)methyl)-6-chloro-2-naphthamide [Compound 169]	–	< 10 µM	–
